According to patent US8895744B2, “Alfa-carboline inhibitors of NPM-ALK, RET, and Bcr-Abl” (Universita' Degli Studi di Milano-Bicocca, priority 2008, dated 2014):

Legend:
Recombinant ALK kinase = target: T1, Recombinant ALK kinase (Homo sapiens, UniProt Q9UM73); experiment: ALK kinase inhibitory activity, ELISA-based in vitro kinase assay; format: biochemical; settings: purified rALK, 0.3 mM ATP, read-out: ALK IC50
T1 construct: made in house; host or cells: Sf9 insect cells (baculovirus)
Experimental: 36. Alk Kinase Inhibitory Activity
(§1) Method: ELISA-Based In Vitro Kinase Assay
(§2) Recombinant ALK kinase was expressed in Sf9 insect cells using the pBlueBacHis2C baculovirus vector system and purified using an anion exchange Fast Flow Q-sepharose column (Amersham-Pharmacia Biotech) followed by HiTrap™-nickel affinity column (Amersham-Pharmacia Biotech). Purified ALK protein was used to screen inhibitors in the ELISA-based kinase assay. A Nunc Immuno 96 well plate was incubated overnight at 37° C. with coating solution (125 μL/well) containing ALK peptide substrate ([…]) (SEQ ID NO: 1) at various concentrations in PBS. Wells were then washed with 200 μL of wash buffer (PBS-Tween 0.05%) and left to dry for at least 2 h at 37° C. The kinase reaction was performed in the presence of 50 mM Tris pH 7.5, 5 mM MnCl2, 5 mM MgCl2, 0.3 mM ATP and purified rALK in a total volume of 100 μL/well at 30° C. for 15 min. For inhibitor testing the reaction mix was preincubated with the inhibitor or solvent control for 10 min at room temperature before transferring to the ELISA plate. After the reaction wells were washed 5 times with 200 μL of wash buffer. Phosphorylated peptide was detected using 100 μL/well of a mouse monoclonal anti-phosphotyrosine antibody (clone 4G10 Upstate Biotech Ltd) diluted 1:2000 in PBS+4% BSA. After 30 min incubation at room temperature the antibody was removed and wells were washed as described above. 100 μL of a secondary antibody (anti-mouse IgG, Horseradish Peroxidase linked whole antibody, Amersham Pharmacia Biotech) diluted 1:1000 in PBS+4% BSA was added to each well and the plate was incubated again for 30 min at room temperature before washing as above. The plate was developed using 100 μL/well TMB Substrate Solution (Endogen) and the reaction was stopped by adding an equiv.ual volume of H2SO4 0.36 M. Finally, the absorbance was read at 450 nm using an Ultrospec® 300 spectrophotometer (Amersham-Pharmacia Biotech). The concentration of the test solution showing 50% inhibition as compared with the control was expressed as IC50 (μM).

[1] = target: T2, Recombinant Abl T315I protein (Homo sapiens, UniProt P00519, T315I); experiment: Abl T315I mutant kinase inhibitory activity, ELISA-based in vitro kinase assay; format: biochemical; settings: purified Abl T315I, 0.3 mM ATP
T2 construct: made in house; host or cells: Sf9 cells (baculovirus)
Experimental: as §2
37. Abl T315I Mutant Kinase Inhibitory Activity
as §1
Recombinant Abl T315I protein was expressed in Sf9 cells using the pBlueBacHis2C baculovirus expression vector. Abl T315I was purified using an anion exchange Fast Flow Q-sepharose column (Amersham-Pharmacia Biotech) followed by HiTrap™-nickel affinity column (Amersham-Pharmacia Biotech). Purified Abl T315I was used in the ELISA-based kinase assay to screen inhibitors as described above. The kinase reaction was performed in the presence of 50 mM Tris pH 7.5, 1 mM MnCl2, 5 mM MgCl2, 0.3 mM ATP, peptide substrate ([…]) (SEQ ID NO: 1) and purified Abl T315I. The concentration of the test solution showing 50% inhibition as compared with the control was expressed as IC50 (μM).

[2] = target: T3, BaF3 cells transformed with the oncogenic fusion protein NPM/ALK (Homo sapiens, UniProt Q9UM73); experiment: Tritiated thymidine uptake cell proliferation assay, BaF3 NPM/ALK; format: cell-based; settings: 3[H]-thymidine uptake, 72 h; read-out: BaF NPM/ALK IC50
T3 construct: fused on or other part: P06748 (Nucleophosmin)
T3 sequence (Q9UM73 whole entry, change not shown, the tested form may be a part): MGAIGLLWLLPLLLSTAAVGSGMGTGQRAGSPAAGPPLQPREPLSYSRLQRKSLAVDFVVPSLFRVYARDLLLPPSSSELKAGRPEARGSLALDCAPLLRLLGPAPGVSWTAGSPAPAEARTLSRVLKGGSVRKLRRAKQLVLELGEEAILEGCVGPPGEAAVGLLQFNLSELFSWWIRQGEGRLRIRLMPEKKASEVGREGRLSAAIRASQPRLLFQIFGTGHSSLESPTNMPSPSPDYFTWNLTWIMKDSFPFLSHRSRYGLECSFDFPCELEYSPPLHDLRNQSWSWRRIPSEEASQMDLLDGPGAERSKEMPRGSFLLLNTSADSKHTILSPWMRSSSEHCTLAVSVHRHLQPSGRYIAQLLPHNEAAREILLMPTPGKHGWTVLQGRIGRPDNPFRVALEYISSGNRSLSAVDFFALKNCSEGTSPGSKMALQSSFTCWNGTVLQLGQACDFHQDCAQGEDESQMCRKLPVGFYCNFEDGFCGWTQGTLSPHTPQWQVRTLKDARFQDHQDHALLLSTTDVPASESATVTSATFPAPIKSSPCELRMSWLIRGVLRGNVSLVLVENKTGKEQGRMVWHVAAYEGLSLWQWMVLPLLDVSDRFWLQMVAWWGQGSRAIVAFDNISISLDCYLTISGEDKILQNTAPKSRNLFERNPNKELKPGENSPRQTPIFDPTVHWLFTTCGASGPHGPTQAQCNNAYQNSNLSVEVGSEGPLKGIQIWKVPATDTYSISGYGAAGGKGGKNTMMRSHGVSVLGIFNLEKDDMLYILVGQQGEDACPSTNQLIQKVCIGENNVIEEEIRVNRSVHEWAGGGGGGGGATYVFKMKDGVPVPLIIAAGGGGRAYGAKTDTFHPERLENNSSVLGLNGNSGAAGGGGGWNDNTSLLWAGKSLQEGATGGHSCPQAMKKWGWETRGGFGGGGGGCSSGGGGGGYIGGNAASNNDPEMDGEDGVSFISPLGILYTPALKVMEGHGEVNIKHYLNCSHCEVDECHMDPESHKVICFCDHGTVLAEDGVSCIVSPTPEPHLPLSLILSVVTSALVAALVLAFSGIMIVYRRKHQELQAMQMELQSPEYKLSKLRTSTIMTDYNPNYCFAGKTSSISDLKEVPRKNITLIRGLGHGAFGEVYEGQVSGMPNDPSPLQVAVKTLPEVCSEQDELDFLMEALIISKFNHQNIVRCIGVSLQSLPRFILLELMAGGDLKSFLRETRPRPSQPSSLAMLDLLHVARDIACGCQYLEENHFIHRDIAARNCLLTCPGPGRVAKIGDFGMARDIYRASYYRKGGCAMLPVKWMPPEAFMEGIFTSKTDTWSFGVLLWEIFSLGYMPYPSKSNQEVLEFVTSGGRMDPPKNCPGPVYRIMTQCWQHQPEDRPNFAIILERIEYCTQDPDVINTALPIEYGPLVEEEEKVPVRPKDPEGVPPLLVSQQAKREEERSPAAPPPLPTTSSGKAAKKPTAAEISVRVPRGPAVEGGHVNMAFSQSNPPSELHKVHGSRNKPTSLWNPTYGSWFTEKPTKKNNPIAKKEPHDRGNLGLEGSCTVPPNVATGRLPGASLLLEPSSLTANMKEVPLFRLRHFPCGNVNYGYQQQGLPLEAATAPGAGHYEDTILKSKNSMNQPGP
Experimental: Inhibition of the proliferation of NPM/ALK positive cells
(§3) Method: Tritiated Thymidine Uptake Cell Proliferation Assay
(§4) The following procedure was used with parent untransformed BaF3 cells, BaF3 cells transformed with the oncogenic fusion protein NPM/ALK, NPM/ALK positive SUDHL-1 cells, ALK-negative U937 cells, NPM/ALK positive KARPAS-299 cells. The parent untransformed BaF3 cells and Alk-negative U937 cells are used as controls. Cells were seeded in U-bottomed 96-well plates at 10 000 cells/well in a volume of 100 μL in supplemented medium. In the case of the parent untransformed BaF3 cells, the medium was supplemented with IL-3. Serial dilutions of inhibitors were added to the appropriate wells and volumes adjusted to 200 μL. Controls were treated with the equivalent volume of vehicle, DMSO, alone. Plates were incubated at 37° C. for 72 h. ^3[H]-thymidine (1 μCi/well) was added for the last 16 h of incubation. Cells were harvested on to paper filters and ^3[H]-thymidine incorporation was measured using a β scintillation counter (1430 MicroBeta, Wallac, Turku, Finland). The 50% inhibitory concentration (IC50) was defined as the concentration of inhibitor, expressed in micromolar, that gave a 50% decrease in ^3[H]-thymidine uptake compared with controls.

[3] = test system: parent untransformed BaF3 cells; experiment: Tritiated thymidine uptake cell proliferation assay, parental BaF3 (control); format: cell-based; settings: Mus musculus, 3[H]-thymidine uptake, 72 h, medium with IL-3, read-out: BaF parental IC50
Experimental: as §3, §4
as §4, with “protein bcr-abl, Abl-negative” for “protein NPM/ALK, NPM/ALK positive SUDHL-1 cells, ALK-negative”, “cells, or Bcr-abl” for “cells, NPM/ALK”, “positive LAMA-84” for “positive KARPAS-299”, “and Abl-negative” for “and Alk-negative”, “in ^3H-thymidine” for “in ^3[H]-thymidine”
as §4, with “RET-PTC2, or RET-negative 11937” for “NPM/ALK, NPM/ALK positive SUDHL-1 cells, ALK-negative U937 cells, NPM/ALK positive KARPAS-299”, “RET-negative” for “Alk-negative”

T1 sequence (Q9UM73 19-1620): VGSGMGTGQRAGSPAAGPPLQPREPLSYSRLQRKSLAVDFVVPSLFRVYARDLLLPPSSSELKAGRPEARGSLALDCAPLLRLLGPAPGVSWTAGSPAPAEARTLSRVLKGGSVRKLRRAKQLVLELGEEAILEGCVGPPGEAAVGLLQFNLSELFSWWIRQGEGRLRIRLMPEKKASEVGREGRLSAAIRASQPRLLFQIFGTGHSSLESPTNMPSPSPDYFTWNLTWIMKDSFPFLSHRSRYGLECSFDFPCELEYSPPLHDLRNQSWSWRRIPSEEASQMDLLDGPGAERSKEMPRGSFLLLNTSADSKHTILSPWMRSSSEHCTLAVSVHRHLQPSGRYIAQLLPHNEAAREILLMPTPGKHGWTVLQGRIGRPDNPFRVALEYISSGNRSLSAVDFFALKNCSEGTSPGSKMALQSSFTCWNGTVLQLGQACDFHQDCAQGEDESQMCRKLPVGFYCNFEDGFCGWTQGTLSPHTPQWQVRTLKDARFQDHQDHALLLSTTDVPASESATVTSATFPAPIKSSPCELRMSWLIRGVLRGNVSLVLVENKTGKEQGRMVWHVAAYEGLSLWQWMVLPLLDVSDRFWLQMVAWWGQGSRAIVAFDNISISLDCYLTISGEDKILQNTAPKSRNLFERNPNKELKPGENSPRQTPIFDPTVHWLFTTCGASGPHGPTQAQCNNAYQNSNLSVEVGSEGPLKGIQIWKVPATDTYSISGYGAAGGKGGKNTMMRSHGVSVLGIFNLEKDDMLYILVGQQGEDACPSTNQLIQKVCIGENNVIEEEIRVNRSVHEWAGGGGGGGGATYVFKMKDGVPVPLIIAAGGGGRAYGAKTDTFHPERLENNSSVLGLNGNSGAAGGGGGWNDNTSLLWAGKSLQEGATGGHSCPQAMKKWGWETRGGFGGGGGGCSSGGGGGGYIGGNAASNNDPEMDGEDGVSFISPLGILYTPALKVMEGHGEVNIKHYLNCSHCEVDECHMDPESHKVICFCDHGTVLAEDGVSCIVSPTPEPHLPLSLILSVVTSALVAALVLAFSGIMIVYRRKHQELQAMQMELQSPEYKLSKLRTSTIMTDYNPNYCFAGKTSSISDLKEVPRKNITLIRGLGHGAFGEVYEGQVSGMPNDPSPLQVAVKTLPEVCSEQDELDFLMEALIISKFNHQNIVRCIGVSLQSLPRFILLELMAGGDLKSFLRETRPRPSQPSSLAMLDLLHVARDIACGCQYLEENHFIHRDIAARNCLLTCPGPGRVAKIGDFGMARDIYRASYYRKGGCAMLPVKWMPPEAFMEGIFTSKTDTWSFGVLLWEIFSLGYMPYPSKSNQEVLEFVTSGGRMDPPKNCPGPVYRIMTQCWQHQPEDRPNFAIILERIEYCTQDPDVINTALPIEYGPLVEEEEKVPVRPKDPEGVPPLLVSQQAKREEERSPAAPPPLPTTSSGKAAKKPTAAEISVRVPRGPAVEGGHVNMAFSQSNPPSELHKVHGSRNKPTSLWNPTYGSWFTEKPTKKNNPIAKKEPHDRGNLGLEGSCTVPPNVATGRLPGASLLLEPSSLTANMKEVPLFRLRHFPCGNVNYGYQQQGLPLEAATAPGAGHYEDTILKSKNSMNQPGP

Row | SMILES | melting point [°C] | also measured
1 | C(=C\c1ccnc2[nH]c3ccccc3c12)/c1ccccc1 [R310, 4-(2′-phenylethenyl)-9H-pyrido[2,3-b]indole] | > 220 | 
2 | Clc1cnc2[nH]c3ccc(-c4ccc(CN5CCOCC5)cc4)cc3c2c1 [R313, 3-chloro-6-(4-(morpholin-4-yl)methylphenyl)-9H-pyrido[2,3-b]indole] |  | IC50 (Recombinant ALK kinase): 8.8 ± 2.7 µM; IC50 [1]: > 10 µM; GI50 [2]: 0.64 µM; IC50 [3]: 0.5 µM
3 | O=[N+]([O-])c1cccc(Nc2ccc3c(n2)[nH]c2ccccc23)c1 [R317, N-(3-nitrophenyl)-9H-pyrido[2,3-b]indol-2-amine] |  | IC50 (Recombinant ALK kinase): 8.2 ± 2.1 µM; IC50 [1]: 26 µM; GI50 [2]: 2.6 µM; IC50 [3]: 6.3 µM
4 | O=[N+]([O-])c1ccccc1Nc1ccc2c(n1)[nH]c1ccccc12 [R319, N-(2-nitrophenyl)-9H-pyrido[2,3-b]indol-2-amine] |  | IC50 (Recombinant ALK kinase): 4.7 ± 0.2 µM; IC50 [1]: 16 µM; GI50 [2]: 11 µM; IC50 [3]: 44 µM
5 | O=C(O)c1ccc2[nH]c3ncc(Cl)cc3c2c1 [compound 5, 3-chloro-9H-pyrido[2,3-b]indol-6-carboxylic acid] | > 295 | 
6 | Cc1ccc2c(n1)[nH]c1ccc(C(=O)O)cc12 [compound 6, 2-methyl-9H-pyrido[2,3-b]indol-6-carboxylic acid] | > 295 | 
7 | Clc1ccc2c(n1)[nH]c1ccc(Br)cc12 [compound 9, 6-bromo-2-chloro-9H-pyrido[2,3-b]indole] | > 220 | 
8 | Clc1ccnc2[nH]c3ccc(Br)cc3c12 [compound 10, 6-bromo-4-chloro-9H-pyrido[2,3-b]indole] | > 220 | 
9 | O=C(O)CCC(=O)c1ccc2[nH]c3ncc(Cl)cc3c2c1 [compound 11, 4-(3-Chloro-9H-pyrido[2,3-b]indol-6-yl)-4-oxo-butyric acid] | 243 | 
10 | O=C(O)CCC(=O)c1ccc2[nH]c3nc(Cl)ccc3c2c1 [compound 12, 4-(2-Chloro-9H-pyrido[2,3-b]indol-6-yl)-4-oxo-butyric acid] | 280.8 | 
11 | O=S(=O)(c1ccccc1)n1c2ccc(Br)cc2c2ccc(Cl)nc21 [compound 19, 9-benzenesulfonyl-6-bromo-2-chloro-9H-pyrido[2,3-b]indole] | 204 to 206 | 
12 | O=S(=O)(c1ccccc1)n1c2ccc(Br)cc2c2cc(Cl)cnc21 [compound 20, 9-benzenesulfonyl-6-bromo-3-chloro-9H-pyrido[2,3-b]indole] | 242 | 
13 | O=S(=O)(c1ccccc1)n1c2ccc(Br)cc2c2c(Cl)ccnc21 [compound 21, 9-benzenesulfonyl-6-bromo-4-chloro-9H-pyrido[2,3-b]indole] | 212 to 214 | 
14 | COc1ccc(-c2ccc3c(c2)c2cc(Cl)cnc2n3S(=O)(=O)c2ccccc2)cc1 [compound 26, 9-benzenesulfonyl-3-chloro-6-(4-methoxyphenyl)-9H-pyrido[2,3-b]indole] | > 220 | 
15 | O=S(=O)(c1ccccc1)n1c2ccc(/C=C/c3ccccc3)cc2c2cc(Cl)cnc21 [compound 27, 9-benzenesulfonyl-3-chloro-6-(2′-phenylethenyl)-9H-pyrido[2,3-b]indole] | 190 to 192 | 
16 | COc1ccc(-c2ccc3c(c2)c2ccc(Cl)nc2n3S(=O)(=O)c2ccccc2)cc1 [compound 32, 9-benzenesulfonyl-2-chloro-6-(4-methoxyphenyl)-9H-pyrido[2,3-b]indole] | 176 to 178 | 
17 | COc1ccc(-c2ccc3c(c2)c2c(Cl)ccnc2n3S(=O)(=O)c2ccccc2)cc1 [compound 34, 9-benzenesulfonyl-4-chloro-6-(4-methoxyphenyl)-9H-pyrido[2,3-b]indole] | 209 to 211 | 
18 | O=S(=O)(c1ccccc1)n1c2ccc(/C=C/c3ccccc3)cc2c2c(Cl)ccnc21 [compound 35, 9-benzenesulfonyl-4-chloro-6-(2′-phenylethenyl)-9H-pyrido[2,3-b]indole] | 216 to 218 | 
19 | COc1ccc(-c2ccc3c(c2)c2ccc(-c4ccc(OC)cc4)nc2n3S(=O)(=O)c2ccccc2)cc1 [compound 36, 9-benzenesulfonyl-2,6-di(4-methoxyphenyl)-9H-pyrido[2,3-b]indole] | 206 to 208 | 
20 | COc1ccc(-c2ccc3c(c2)c2c(-c4ccc(OC)cc4)ccnc2n3S(=O)(=O)c2ccccc2)cc1 [compound 37, 9-benzenesulfonyl-4,6-di(4-methoxyphenyl)-9H-pyrido[2,3-b]indole] | 162 to 164 | 
21 | COc1ccc(-c2ccc3c(c2)c2ccc(/C=C/c4ccccc4)nc2n3S(=O)(=O)c2ccccc2)cc1 [compound 43, 9-benzenesulfonyl-6-(4-methoxyphenyl)-2-(2′-phenylethenyl)-9H-pyrido[2,3-b]indole] | 193 to 195 | 
22 | COc1ccc(-c2ccc3c(c2)c2c(/C=C/c4ccccc4)ccnc2n3S(=O)(=O)c2ccccc2)cc1 [compound 45, 9-benzenesulfonyl-6-(4-methoxyphenyl)-4-(2′-phenylethenyl)-9H-pyrido[2,3-b]indole] | 190 to 192 | 
23 | O=S(=O)(c1ccccc1)n1c2ccc(CCc3ccccc3)cc2c2cc(Cl)cnc21 [compound 61, 9-(benzenesulfonyl)-3-chloro-6-(2′-phenylethyl)-9H-pyrido[2,3-b]indole] | 158 to 162 | 
